Data: US10285986B2, “Compounds and anti-tumor NQO1 substrates” (The Board of Trustees of the University of Illinois, priority 2011, dated 2019)
Values after ≈ are worked out from the molar mass of the structure shown. Values joined by “and” are separate entries in the source; they are usually repeats but may differ in a detail not shown here. Equal entries are not always repeated. Where two headings read alike, the source gives them in different places.

Legend:
[1] = system: MCF-7 cells; assay: Cytotoxicity to MCF-7 cells with or without 25 μM dicoumarol (sulforhodamine B assay); format: cell-based, human; conditions: for IC50: Homo sapiens; for Fold Protection of MCF7 cells w/ 25 μM dicoumarol: Table 1; for Fold protection by DIC: Table 4.2
Description: The NQO1-dependent cytotoxicity of the first set of derivatives was determined in MCF-7 cells which express high levels of NQO1. Cells were exposed to DNQ for 2 hours in the presence or absence of 25 μM DIC. The media was then removed and cells were washed once with media then fresh media was added and the cells were incubated for 72 hours. Cell death was assessed using the sulforhodamine B assay previously described. […] Substitution off the nitrogen appeared well tolerated (4-14 and 4-15).
The DNQ derivatives synthesized were assayed for their toxicity to MCF-7 cells with or without DIC. The data from these experiments is organized in Table 4.2. […] This tolerance of sterically-demanding substituents corresponds with a flexible and promiscuous NQO1 active site. The poor activity of hydroxyl derivative 4-41 may be a result of either poor binding with the largely hydrophobic NQO1 active site or with an excessively strong substrate-enzyme interaction because of hydrogen bonding.

[2] = biological target: NQO1 (Homo sapiens, UniProt P15559); assay: NQO1 enzymatic measurements in vitro; format: biochemical; conditions: 1 μM substrate
Sequence of NQO1 (P15559 whole entry): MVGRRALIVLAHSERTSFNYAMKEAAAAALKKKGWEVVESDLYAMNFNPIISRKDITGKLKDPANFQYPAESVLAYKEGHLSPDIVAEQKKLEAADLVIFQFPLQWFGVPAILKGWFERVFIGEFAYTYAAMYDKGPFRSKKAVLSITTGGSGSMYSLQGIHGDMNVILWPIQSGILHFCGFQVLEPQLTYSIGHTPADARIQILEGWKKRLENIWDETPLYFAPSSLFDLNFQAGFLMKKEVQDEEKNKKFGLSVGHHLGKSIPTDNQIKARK
Description: As further evidence that the activity of these DNQ derivatives is dependent on their ability to be reduced by NQO1, full enzymatic measurements in vitro were performed. We found a strong correlation between catalytic efficiency of substrates in vitro and their cell culture toxicity. […] This provides strong evidence that the cytotoxicity of DNQ and its derivatives are dependent primarily upon the activity of NQO1 within the cell.

[3] = Aqueous solubility in pH 7.4 PBS by LC-MS; format: physicochemical; conditions: phosphate buffered saline, pH 7.4, aqueous buffer, thermodynamic from solid, PBS pH 7.4; Table 4.3
Description: The aqueous solubility of DNQ at pH 7.4 in phosphate buffered saline (PBS) was measured by LC-MS. DNQ was sonicated for 30 minutes in PBS then undissolved solid was removed by filtration through a 0.45 μm syringe filter and the filtrate was analyzed by LC-MS (λ=275 nm, ESI-TOF in negative mode). The optimal sonication time was determined by sonicating DNQ for 1, 5, 10, and 30 minutes. While the concentration of DNQ in solution increased substantially between 1, 5, and 10 minutes, there was only a minor difference between 10 and 30 minutes. During the 30 minute sonication the water bath warmed to 45° C. (samples were cooled to room temperature before filtration). A calibration curve was generated from 1-100 μM by dissolving DNQ in methanol to a concentration of 500 μM and making dilutions of this stock in 80:20 water:methanol. The calibration curve (measure by UV absorbance) was linear over this range; 1 μM was approximately the limit of detection. […] The solution was very pale yellow.
The aqueous solubility of the compounds was determined by an LC-MS assay as described in the specification above. We applied the calibration curve generated for DNQ to the derivatives under the assumption that the UV profile of the derivatives of DNQ would be similar to that of DNQ.
After sonication and filtration most of the aqueous solutions were colorless. The solutions of DNQ, 4-31, and 4-37 were faintly yellow while 4-8, 4-14 and 4-41 were substantially more colored. The solution of 4-8, 4-14 and 4-41 were diluted 10-fold with PBS prior to LC-MS analysis to ensure that the concentrations fell within the range of the calibration curve.

[4] = Solubility in 20% HPβCD solution (pH modulation protocol); format: physicochemical; conditions: 20% HPβCD in pH 7.4 PBS, pH 7.4, aqueous with cosolvent or surfactant or cyclodextrin, thermodynamic from solid; 20% HPβCD; Table 4.3
Description: The protocol for formulating DNQ compounds in HPβCD is as follows: the DNQ compound is slurried in a 20% solution of HPβCD in pH 7.4 PBS and the pH is then increased by the addition of 10 M NaOH to induce dissolution of the DNQ compound. The pH is returned to pH 7.5-8.0 by the careful addition of 1 M HCl. A 3.3 mM solution of the DNQ compound can be made by this method which is stable at least 24 hours. This represents a 30-fold increase in solubility of DNQ over PBS alone.
Although we were pleased to find active derivatives of DNQ that were up to 4-fold more soluble in water—sufficiently soluble for continuous IV infusion for human administration—this level of solubility was insufficient for animal studies by bolus injection. […] We used the same pH modulation protocol outlined for DNQ described in the specification above. The results are organized in Table 4.3 and FIG. 8. While all compounds were more soluble in HPβCD than in buffer alone, the fold increase in solubility varied widely.

[5] = Solubility in organic solvents; format: physicochemical; conditions: for solubility: organic solvent or mixture, thermodynamic from solid
Description: The solubility of DNQ derivatives in organic solvents was determined by measuring the amount of a given solvent required to dissolve a known amount of compound. Solvent was added to the compound in 50 μL aliquots and the slurry was sonicated. […] Solubility was assessed in DMSO, dichloromethane, and 33% methanol in dichloromethane (FIGS. 9, 10, and 11, respectively).

[6] = Solubility in organic solvents; format: physicochemical; conditions: organic solvent or mixture, thermodynamic from solid; THF; Table 1
[7] = Maximum tolerated dose in mice; conditions: mouse, in vivo, ip
Text: Because of the difficulty of repeated tail vein injections in mice, our group is using IP administration of compound.
All of these derivatives are currently being assessed for their maximum tolerated dose (MTD) in healthy mice. Compounds are formulated in HPβCD and delivered by IP injection to two mice once daily for five days.

[8] = MCF7, Table 1, read-out: MCF7 IC50
[9] = MCF7, Table 4.2, no DIC, ± s.e., read-out: IC50 vs. MCF-7 cells
[10] = MCF7, classification in figure legends of FIGS. 7-11, read-out: IC50 ("active" / generally "inactive" compounds)
[11] = MCF7, read-out: IC50 vs. MCF-7 cells +25 μM DIC, Table 4.2, +25 μM DIC, ± s.e.
[12] = 2:1 CH2Cl2:MeOH, Table 4.3, read-out: Solubility in 2:1 CH2Cl2:MeOH
[13] = CH2Cl2:MeOH 2:1, Table 1, read-out: CH2Cl2:MeOH 2:1 solubility
[14] = CH2Cl2, Table 1, read-out: CH2Cl2 solubility
[15] = DMSO, Table 1, read-out: DMSO solubility
[16] = CH2Cl2, Table 4.3, read-out: Solubility in CH2Cl2
[17] = DMSO, Table 4.3, read-out: Solubility in DMSO

Row | SMILES | IC50 [1, 8] [nM] | IC50 [1, 9] [nM] | IC50 [1, 10] [nM] | IC50 [1, 11] [nM] | Fold Protection of MCF7 cells w/ 25 μM dicoumarol [1] | Fold protection by DIC [1] | NQO1 Initial Velocity @ 1 μM [2] | solubility at 30 min [3] [µM] | solubility [4] [mM] | Solubility in CH2Cl2 ([5]; CH2Cl2, Table 4.3) [mM] | Solubility in DMSO ([5]; DMSO, Table 4.3) [mM] | solubility [5, 12] [mM] | solubility [5, 13] [mM] | solubility [5, 14] [mM] | solubility [5, 15] [mM] | solubility [6] [mM] | solubility [5, 16] [mM] | solubility [5, 17] [mM] | MTD at 5 days [7]
1 | CCCCn1c2c(c(C)cc1=O)C(=O)c1c(C)cc(=O)[nH]c1C2=O [Compound 4-22] | 270 | 270 ± 40 | < 500 | 1500 ± 400 | 5.5 | 5.5 | 2100 ± 300 | 17 (≈ 5.55 µg/mL) | 4 (≈ 1310 µg/mL) | 7.6 (≈ 2480 µg/mL) | 10 (≈ 3260 µg/mL) | 30 (≈ 9790 µg/mL) | 30 (≈ 9790 µg/mL) | 7.6 (≈ 2480 µg/mL) | 10 (≈ 3260 µg/mL) | 6.1 (≈ 1990 µg/mL) | – | – | –
2 | CCCCCCCn1c2c(c(C)cc1=O)C(=O)c1c(C)cc(=O)[nH]c1C2=O [Compound 4-25] | – | 420 ± 110 | < 500 | 4500 ± 400 | – | 11 | – | < 5 | 3 (≈ 1110 µg/mL) | – | – | – | – | – | – | – | 30 (≈ 11100 µg/mL) | 13 (≈ 4790 µg/mL) | –
3 | Cc1cc(=O)[nH]c2c1C(=O)c1c(C)cc(=O)n(C(C)C)c1C2=O [Compound 4-30] | – | 240 ± 20 | < 500 | 2100 ± 800 | – | 8.6 | – | 41 (≈ 12.8 µg/mL) | 3.7 (≈ 1160 µg/mL) | – | – | 79 (≈ 24700 µg/mL) | – | – | – | – | 5.6 (≈ 1750 µg/mL) | 21 (≈ 6560 µg/mL) | –
4 | Cc1cc(=O)[nH]c2c1C(=O)c1c(C)cc(=O)n(CC3CC3)c1C2=O [Compound 4-37] | – | 220 ± 10 | < 500 | 1400 ± 200 | – | 6.1 | – | 114 (≈ 37 µg/mL) | 4.3 (≈ 1390 µg/mL) | – | – | 51 (≈ 16500 µg/mL) | – | – | – | – | 13 (≈ 4220 µg/mL) | 25 (≈ 8110 µg/mL) | –
5 | Cc1cc(=O)[nH]c2c1C(=O)c1c(C)cc(=O)n(CCC(C)C)c1C2=O [Compound 9-249] | 150 ± 30 | 180 ± 30 | < 500 | 1800 ± 500 | 12 | 10 | 2100 ± 90 | 6 (≈ 2.04 µg/mL) | 4.7 (≈ 1600 µg/mL) | 9.7 (≈ 3300 µg/mL) | 8.6 (≈ 2930 µg/mL) | 58 (≈ 19700 µg/mL) | 58 (≈ 19700 µg/mL) | 9.7 (≈ 3300 µg/mL) | 8.6 (≈ 2930 µg/mL) | 8.8 (≈ 3000 µg/mL) | – | – | 15 mg/kg and 44 µmol/kg
6 | Cc1cc(=O)[nH]c2c1C(=O)c1c(C)cc(=O)n(CC(C)(C)C)c1C2=O [Compound 9-253] | 110 ± 40 | 230 ± 10 | < 500 | 2100 ± 700 | 9 | 8.9 | 1700 ± 100 | 24 (≈ 8.17 µg/mL) | 9.4 (≈ 3200 µg/mL) | 23 (≈ 7830 µg/mL) | 16 (≈ 5450 µg/mL) | 100 (≈ 34000 µg/mL) | 100 (≈ 34000 µg/mL) | 23 (≈ 7830 µg/mL) | 16 (≈ 5450 µg/mL) | 20 (≈ 6810 µg/mL) | – | – | ≥ 15 mg/kg and ≥ 44 µmol/kg
7 | CCCCCn1c2c(c(C)cc1=O)C(=O)c1c(C)cc(=O)[nH]c1C2=O [Compound 9-255] | 190 ± 10 | 200 ± 10 | < 500 | 2000 ± 900 | 11 | 10 | 1700 ± 40 | < 5 | 5 (≈ 1700 µg/mL) | 22 (≈ 7490 µg/mL) | 17 (≈ 5790 µg/mL) | 95 (≈ 32300 µg/mL) | 95 (≈ 32300 µg/mL) | 22 (≈ 7490 µg/mL) | 17 (≈ 5790 µg/mL) | 16 (≈ 5450 µg/mL) | – | – | ≥ 15 mg/kg and ≥ 44 µmol/kg
8 | Cc1cc(=O)[nH]c2c1C(=O)c1c(C)cc(=O)n(CCCO)c1C2=O [Compound 9-281] | 790 ± 100 | 680 ± 150 | > 500 | 3400 ± 600 | 4 | 5.0 | 1600 ± 200 | 485 (≈ 159 µg/mL) | – | 0.3 (≈ 98.5 µg/mL) | 24 (≈ 7880 µg/mL) | 11 (≈ 3610 µg/mL) | 11 (≈ 3610 µg/mL) | 0.3 (≈ 98.5 µg/mL) | 24 (≈ 7880 µg/mL) | 0.67 (≈ 220 µg/mL) | – | – | –
